Consider one molecule from article PMC5218480 (PLoS ONE, 2017).

The test system of this experiment is MV-4-11 cells. Kind of experiment: Gene expression microarray analysis (Affymetrix PrimeView) and GSEA. Type of experiment: cell-based, human. The arrangement: RFU PODN (11730768_x_at) / Fold change /veh PODN (11730768_x_at) / RFU LINC00158 (11744669_a_at) / Fold change /veh LINC00158 (11744669_a_at) / RFU DUSP10 (11751237_a_at) / Fold change /veh DUSP10 (11751237_a_at) / RFU ID3 (11757404_x_at) / Fold change /veh ID3 (11757404_x_at) / RFU PLEKHG5 (11737974_s_at) / Fold change /veh PLEKHG5 (11737974_s_at) / RFU LRRC4B (11730491_at) / Fold change /veh LRRC4B (11730491_at) / RFU GIMAP4 (11747438_a_at) / Fold change /veh GIMAP4 (11747438_a_at) / RFU KRT8 (11758183_x_at) / Fold change /veh KRT8 (11758183_x_at) / RFU CNN1 (11734310_a_at) / Fold change /veh CNN1 (11734310_a_at) / RFU VPS37D (11726825_at) / Fold change /veh VPS37D (11726825_at) / RFU C10orf10 (11716522_x_at) / Fold change /veh C10orf10 (11716522_x_at) / RFU KIR2DL2 /// KIR2DL4 /// KIR2DL5A /// KIR2DL5B /// KIR2DS1 /// KIR2DS2 /// KIR2DS3 /// KIR2DS4 /// KIR3DL3 /// KIR3DL3 /// KIR3DS1 (11738374_at) / Fold change /veh KIR2DL2 /// KIR2DL4 /// KIR2DL5A /// KIR2DL5B /// KIR2DS1 /// KIR2DS2 /// KIR2DS3 /// KIR2DS4 /// KIR3DL3 /// KIR3DL3 /// KIR3DS1 (11738374_at) / RFU C1QL1 (11718748_at) / Fold change /veh C1QL1 (11718748_at) / RFU TMPRSS4 (11747572_a_at) / Fold change /veh TMPRSS4 (11747572_a_at) / RFU HAMP (11756126_x_at) / Fold change /veh HAMP (11756126_x_at) / RFU RNFT2 (11725882_a_at) / Fold change /veh RNFT2 (11725882_a_at) / RFU NR4A2 (11747474_a_at) / Fold change /veh NR4A2 (11747474_a_at) / RFU ABCC12 (11746883_a_at) / Fold change /veh ABCC12 (11746883_a_at) / RFU TMEM136 (11760407_x_at) / Fold change /veh TMEM136 (11760407_x_at) / RFU CLDN22 /// WWC2 (11732394_at) / Fold change /veh CLDN22 /// WWC2 (11732394_at) / RFU HLA-DPB1 (11760878_x_at) / Fold change /veh HLA-DPB1 (11760878_x_at) / RFU SPINT1 (11716480_a_at) / Fold change /veh SPINT1 (11716480_a_at) / RFU GAP43 (11754022_s_at) / Fold change /veh GAP43 (11754022_s_at) / RFU A4GNT (11735810_at) / Fold change /veh A4GNT (11735810_at) / RFU PRB3 (11715151_x_at) / Fold change /veh PRB3 (11715151_x_at) / RFU TUBB4B (11761932_at) / Fold change /veh TUBB4B (11761932_at) / RFU CAPN14 (11732068_a_at) / Fold change /veh CAPN14 (11732068_a_at) / RFU TMCC2 (11721928_a_at) / Fold change /veh TMCC2 (11721928_a_at) / RFU IRGQ (11745062_a_at) / Fold change /veh IRGQ (11745062_a_at) / RFU FAM174B (11720279_a_at) / Fold change /veh FAM174B (11720279_a_at) / RFU TMPRSS4 (11748680_a_at) / Fold change /veh TMPRSS4 (11748680_a_at) / RFU FAM212B (11763350_a_at) / Fold change /veh FAM212B (11763350_a_at) / RFU PLEKHG5 (11743358_a_at) / Fold change /veh PLEKHG5 (11743358_a_at) / RFU ZSCAN30 (11745921_a_at) / Fold change /veh ZSCAN30 (11745921_a_at) / RFU CMKLR1 (11741424_a_at) / Fold change /veh CMKLR1 (11741424_a_at) / RFU LOC101060620 /// MAPK8IP1 (11723275_at) / Fold change /veh LOC101060620 /// MAPK8IP1 (11723275_at) / RFU SPTSSB (11747773_x_at) / Fold change /veh SPTSSB (11747773_x_at) / RFU PRSS12 (11739890_at) / Fold change /veh PRSS12 (11739890_at) / RFU BIN1 (11741810_x_at) / Fold change /veh BIN1 (11741810_x_at) / RFU WNT11 (11732464_a_at) / Fold change /veh WNT11 (11732464_a_at) / RFU C10orf10 (11716521_a_at) / Fold change /veh C10orf10 (11716521_a_at) / RFU C5orf56 (11738089_at) / Fold change /veh C5orf56 (11738089_at) / RFU CYB561 (11721691_x_at) / Fold change /veh CYB561 (11721691_x_at) / RFU ANKRD19P (11752326_a_at) / Fold change /veh ANKRD19P (11752326_a_at) / RFU OR2T12 /// OR2T33 /// OR2T8 (11738714_s_at) / Fold change /veh OR2T12 /// OR2T33 /// OR2T8 (11738714_s_at) / RFU VCAN (11748164_a_at) / Fold change /veh VCAN (11748164_a_at) / RFU JSRP1 (11732532_at) / Fold change /veh JSRP1 (11732532_at) / RFU KRTAP10-11 (11738290_x_at) / Fold change /veh KRTAP10-11 (11738290_x_at) / RFU MYO3A (11730013_a_at) / Fold change /veh MYO3A (11730013_a_at) / RFU EBF3 (11725865_a_at) / Fold change /veh EBF3 (11725865_a_at) / RFU CAMK2N1 (11719241_x_at) / Fold change /veh CAMK2N1 (11719241_x_at) / RFU C5orf56 (11738088_a_at) / Fold change /veh C5orf56 (11738088_a_at) / RFU OLFML3 (11715873_a_at) / Fold change /veh OLFML3 (11715873_a_at) / RFU LOC100653217 /// NTM (11731650_a_at) / Fold change /veh LOC100653217 /// NTM (11731650_a_at) / RFU MAPK11 (11762145_a_at) / Fold change /veh MAPK11 (11762145_a_at) / RFU FIZ1 (11724087_x_at) / Fold change /veh FIZ1 (11724087_x_at) / RFU OASL (11726364_x_at) / Fold change /veh OASL (11726364_x_at) / RFU SOX15 (11748057_x_at) / Fold change /veh SOX15 (11748057_x_at) / RFU CD79A (11719716_a_at) / Fold change /veh CD79A (11719716_a_at) / RFU HIST1H1D (11736915_at) / Fold change /veh HIST1H1D (11736915_at) / RFU CASKIN2 (11723855_a_at) / Fold change /veh CASKIN2 (11723855_a_at) / RFU LOC730098 (11760151_x_at) / Fold change /veh LOC730098 (11760151_x_at) / RFU OR4N2 (11742367_at) / Fold change /veh OR4N2 (11742367_at) / RFU PRRT2 (11749266_a_at) / Fold change /veh PRRT2 (11749266_a_at) / RFU SNX32 (11753110_a_at) / Fold change /veh SNX32 (11753110_a_at) / RFU CDHR5 (11726645_a_at) / Fold change /veh CDHR5 (11726645_a_at) / RFU RCAN1 (11760418_a_at) / Fold change /veh RCAN1 (11760418_a_at) / RFU FAM167A (11723789_a_at) / Fold change /veh FAM167A (11723789_a_at) / RFU FAM26E (11764081_at) / Fold change /veh FAM26E (11764081_at) / RFU ISYNA1 (11749810_s_at) / Fold change /veh ISYNA1 (11749810_s_at) / RFU ACY1 (11761880_at) / Fold change /veh ACY1 (11761880_at) / RFU 11764098_at / Fold change /veh 11764098_at / RFU SAMD14 (11745864_x_at) / Fold change /veh SAMD14 (11745864_x_at) / RFU NPB (11741838_a_at) / Fold change /veh NPB (11741838_a_at) / RFU TMPRSS6 (11731388_a_at) / Fold change /veh TMPRSS6 (11731388_a_at) / RFU KRTAP10-2 (11738614_at) / Fold change /veh KRTAP10-2 (11738614_at) / RFU ARHGAP8 /// PRR5-ARHGAP8 (11727945_x_at) / Fold change /veh ARHGAP8 /// PRR5-ARHGAP8 (11727945_x_at) / RFU KRTAP5-7 /// NADSYN1 (11734609_at) / Fold change /veh KRTAP5-7 /// NADSYN1 (11734609_at) / RFU RASL12 (11751679_a_at) / Fold change /veh RASL12 (11751679_a_at) / RFU CDKN2B (11736163_a_at) / Fold change /veh CDKN2B (11736163_a_at) / RFU PRF1 (11729649_at) / Fold change /veh PRF1 (11729649_at) / RFU, ZNF638 /// ZNF638-IT1 / Fold change vs veh, ZNF638 /// ZNF638-IT1 / RFU, PANK3 / Fold change vs veh, PANK3 / RFU, SH3YL1 / Fold change vs veh, SH3YL1 / RFU, ZEB2 / Fold change vs veh, ZEB2 / RFU, NRIP1 / Fold change vs veh, NRIP1 / RFU, PTTG1IP / Fold change vs veh, PTTG1IP / RFU, CAPN2 / Fold change vs veh, CAPN2 / RFU, MED14 / Fold change vs veh, MED14 / RFU, SNORA58 / Fold change vs veh, SNORA58 / RFU, C1orf63 / Fold change vs veh, C1orf63 / RFU, LRRFIP1 / Fold change vs veh, LRRFIP1 / RFU, NDUFAF7 / Fold change vs veh, NDUFAF7 / RFU, SLC12A2 / Fold change vs veh, SLC12A2 / RFU, IBTK / Fold change vs veh, IBTK / RFU, ESF1 / Fold change vs veh, ESF1 / Fold change vs veh, TMEM50B / RFU, TAOK1 / Fold change vs veh, TAOK1 / RFU, ACBD3 / Fold change vs veh, ACBD3 / RFU, TMA16 / Fold change vs veh, TMA16 / RFU, RWDD3 / Fold change vs veh, RWDD3 / RFU, BCAT1 / Fold change vs veh, BCAT1 / RFU, EDEM3 / Fold change vs veh, EDEM3 / RFU, TMEM33 / Fold change vs veh, TMEM33 / RFU, WDR75 / Fold change vs veh, WDR75 / RFU, AHCTF1 / Fold change vs veh, AHCTF1 / RFU, TFRC / Fold change vs veh, TFRC / RFU, ZDHHC17 / Fold change vs veh, ZDHHC17 / RFU, NOM1 / Fold change vs veh, NOM1 / RFU, ARL8B / Fold change vs veh, ARL8B / RFU, ZBTB11 / Fold change vs veh, ZBTB11 / RFU, TAMM41 / Fold change vs veh, TAMM41 / RFU, KIAA1704 /// LOC100996395 / Fold change vs veh, KIAA1704 /// LOC100996395 / RFU, ING1 / Fold change vs veh, ING1 / RFU, TRMT61B / Fold change vs veh, TRMT61B / RFU, FUBP3 / Fold change vs veh, FUBP3 / RFU, TP53 / Fold change vs veh, TP53 / RFU, TNKS2 / Fold change vs veh, TNKS2 / RFU, ZFP14 / Fold change vs veh, ZFP14 / RFU, ACTR2 / Fold change vs veh, ACTR2 / RFU, PPP3R1 / Fold change vs veh, PPP3R1 / RFU, PIK3R1 / Fold change vs veh, PIK3R1 / RFU, HNRNPA1 / Fold change vs veh, HNRNPA1 / RFU, RNF170 / Fold change vs veh, RNF170 / RFU, ZNF28 / Fold change vs veh, ZNF28 / RFU, RNGTT / Fold change vs veh, RNGTT / RFU, OGT / Fold change vs veh, OGT / RFU, BRD1 / Fold change vs veh, BRD1 / RFU, MARS / Fold change vs veh, MARS / RFU, ZNF655 / Fold change vs veh, ZNF655 / RFU, FAHD1 / Fold change vs veh, FAHD1 / RFU, BDP1 / Fold change vs veh, BDP1 / RFU, LRRCC1 / Fold change vs veh, LRRCC1 / RFU, ARID1A / Fold change vs veh, ARID1A / RFU, ZNF146 / Fold change vs veh, ZNF146 / RFU, ZNF330 / Fold change vs veh, ZNF330 / RFU, GPN3 / Fold change vs veh, GPN3 / RFU, C9orf123 / Fold change vs veh, C9orf123 / RFU, N4BP2L2 / Fold change vs veh, N4BP2L2 / RFU, ARFIP1 / Fold change vs veh, ARFIP1 / RFU, FAM179B / Fold change vs veh, FAM179B / RFU, BCL10 / Fold change vs veh, BCL10 / RFU, UHRF1BP1L / Fold change vs veh, UHRF1BP1L / RFU, BET1 / Fold change vs veh, BET1 / RFU, CNOT2 / Fold change vs veh, CNOT2 / RFU, ZNF268 / Fold change vs veh, ZNF268 / Fold change vs veh, ZNF507 / RFU, DGCR2 / Fold change vs veh, DGCR2 / RFU, WDSUB1 / Fold change vs veh, WDSUB1 / Fold change vs veh, HSP90B1 /// MIR3652 / RFU, ADSS / Fold change vs veh, ADSS / RFU, GK / Fold change vs veh, GK / RFU, ZNF148 / Fold change vs veh, ZNF148 / RFU, TAF9 / Fold change vs veh, TAF9 / RFU, SLC1A5 / Fold change vs veh, SLC1A5 / RFU, SLMO2 / Fold change vs veh, SLMO2 / RFU, ABCC4 / Fold change vs veh, ABCC4 / RFU, LOC101060439 /// RAP1B / Fold change vs veh, LOC101060439 /// RAP1B / RFU, RFX7 / Fold change vs veh, RFX7 / RFU, GTPBP10 / Fold change vs veh, GTPBP10 / RFU, CNEP1R1 / Fold change vs veh, CNEP1R1 / RFU, BIVM-ERCC5 /// ERCC5 / Fold change vs veh, BIVM-ERCC5 /// ERCC5 / RFU, ILF3 / Fold change vs veh, ILF3 / RFU 11762660_at / Fold change /veh 11762660_at / RFU VCAN (11757783_s_at) / Fold change /veh VCAN (11757783_s_at) / RFU DDX43 (11728927_at) / Fold change /veh DDX43 (11728927_at) / RFU KRT8 (11758188_x_at) / Fold change /veh KRT8 (11758188_x_at) / RFU NKD1 (11759106_at) / Fold change /veh NKD1 (11759106_at) / RFU SRD5A1 (11742802_a_at) / Fold change /veh SRD5A1 (11742802_a_at) / RFU TPSAB1 /// TPSB2 (11721975_s_at) / Fold change /veh TPSAB1 /// TPSB2 (11721975_s_at) / RFU GSTM3 (11746129_a_at) / Fold change /veh GSTM3 (11746129_a_at) / RFU IL23R (11737362_x_at) / Fold change /veh IL23R (11737362_x_at) / RFU TMEM51 (11727254_a_at) / Fold change /veh TMEM51 (11727254_a_at) / RFU PIWIL2 (11732686_x_at) / Fold change /veh PIWIL2 (11732686_x_at) / RFU ORM1 (11744905_x_at) / Fold change /veh ORM1 (11744905_x_at) / RFU CCDC152 (11743942_at) / Fold change /veh CCDC152 (11743942_at) / RFU ECM1 (11717891_a_at) / Fold change /veh ECM1 (11717891_a_at) / RFU IL23R (11748794_a_at) / Fold change /veh IL23R (11748794_a_at) / RFU TNFAIP8L3 (11732012_x_at) / Fold change /veh TNFAIP8L3 (11732012_x_at) / RFU MBOAT4 (11741988_at) / Fold change /veh MBOAT4 (11741988_at) / RFU 11764193_at / Fold change /veh 11764193_at / RFU TMEM53 (11763286_at) / Fold change /veh TMEM53 (11763286_at) / RFU MAGEB2 (11727129_at) / Fold change /veh MAGEB2 (11727129_at) / RFU TMEM200A (11744735_a_at) / Fold change /veh TMEM200A (11744735_a_at) / RFU CCDC152 (11751479_a_at) / Fold change /veh CCDC152 (11751479_a_at) / RFU FAM211A (11726209_a_at) / Fold change /veh FAM211A (11726209_a_at) / RFU RGS16 (11746705_a_at) / Fold change /veh RGS16 (11746705_a_at) / RFU VCAN (11755009_s_at) / Fold change /veh VCAN (11755009_s_at) / RFU RHOB (11743442_s_at) / Fold change /veh RHOB (11743442_s_at) / RFU RGS16 (11720943_a_at) / Fold change /veh RGS16 (11720943_a_at) / RFU RGS16 (11720944_at) / Fold change /veh RGS16 (11720944_at) / RFU, VPS4B / Fold change vs veh, VPS4B / RFU, CREB1 / Fold change vs veh, CREB1 / RFU, DNAJC13 / Fold change vs veh, DNAJC13 / RFU, GNAQ / Fold change vs veh, GNAQ / RFU, CDK5R1 / Fold change vs veh, CDK5R1 / RFU, ZRANB3 / Fold change vs veh, ZRANB3 / RFU, CUL4A / Fold change vs veh, CUL4A / RFU, CCNY / Fold change vs veh, CCNY / RFU, UFL1 / Fold change vs veh, UFL1 / RFU, COG3 / Fold change vs veh, COG3 / RFU, DIAPH2 / Fold change vs veh, DIAPH2 / RFU, SKA2 / Fold change vs veh, SKA2 / RFU, AFF3 / Fold change vs veh, AFF3 / RFU, LMF1 / Fold change vs veh, LMF1 / RFU, IPO11 / Fold change vs veh, IPO11 / RFU, DFFB / Fold change vs veh, DFFB / RFU, FOXP1 / Fold change vs veh, FOXP1 / RFU, CARD8 / Fold change vs veh, CARD8 / RFU, STRN3 / Fold change vs veh, STRN3 / RFU, ADK / Fold change vs veh, ADK / RFU, RASSF2 / Fold change vs veh, RASSF2 / RFU, WIPF1 / Fold change vs veh, WIPF1 / RFU, LARP1B / Fold change vs veh, LARP1B / RFU, RASA1 / Fold change vs veh, RASA1 / RFU, RB1 / Fold change vs veh, RB1 / RFU, PPFIA1 / Fold change vs veh, PPFIA1 / RFU, MAT2A / Fold change vs veh, MAT2A / RFU, CCT5 / Fold change vs veh, CCT5 / RFU, WDR92 / Fold change vs veh, WDR92 / RFU, CUX1 / Fold change vs veh, CUX1 / RFU, TTC7A / Fold change vs veh, TTC7A / RFU, TMEM135 / Fold change vs veh, TMEM135 / RFU, DEPTOR / Fold change vs veh, DEPTOR / RFU, CPM / Fold change vs veh, CPM / RFU, DNAJB6 / Fold change vs veh, DNAJB6 / RFU, CACNA2D3 / Fold change vs veh, CACNA2D3 / RFU, DTX4 / Fold change vs veh, DTX4 / RFU, TFCP2 / Fold change vs veh, TFCP2 / RFU, GMCL1 /// GMCL1P1 / Fold change vs veh, GMCL1 /// GMCL1P1 / RFU, AEBP2 / Fold change vs veh, AEBP2 / RFU, SNHG1 /// SNORD22 /// SNORD25 /// SNORD26 /// SNORD27 /// SNORD28 /// SNORD29 /// SNORD31 / Fold change vs veh, SNHG1 /// SNORD22 /// SNORD25 /// SNORD26 /// SNORD27 /// SNORD28 /// SNORD29 /// SNORD31 / Fold change (Aza/veh), C12orf56 (ProbeSet 11735607_a_at) / Fold change (ACY-1035/veh), C12orf56 (ProbeSet 11735607_a_at) / Fold change (Aza/veh), FGFR1OP (ProbeSet 11751329_s_at) / Fold change (ACY-1035/veh), FGFR1OP (ProbeSet 11751329_s_at) / Fold change (Aza/veh), VPS36 (ProbeSet 11739960_a_at) / Fold change (ACY-1035/veh), VPS36 (ProbeSet 11739960_a_at) / RFU SYPL1 (11715823_x_at) / Fold change /veh SYPL1 (11715823_x_at) / RFU IGFBP7 (11715501_s_at) / Fold change /veh IGFBP7 (11715501_s_at) / RFU REEP3 (11722064_at) / Fold change /veh REEP3 (11722064_at) / RFU IGLL1 (11728026_x_at) / Fold change /veh IGLL1 (11728026_x_at): dose or concentration left out as unconfirmed. The settings on record: ProbeSet 11733108_at; LIST D.

Turning to `Nc1ccc(-c2cccs2)cc1NC(=O)c1ccc2c(c1)cc(C1CC1)n2CCN1CCOCC1` [ACY-1035], the “RFU, GNAQ” value was 275.03 RFU.
